Data: US20220062296A1, “COMBINATIONS OF GABAA ALPHA 5 AGONISTS AND SV2A INHIBITORS AND METHODS OF USING IN THE TREATMENT OF COGNITIVE IMPAIRMENT” (AGENEBIO, INC., priority 2020, published 2022)

How the values were obtained:
aMCI subjects [1] = experiment: Explicit 3-alternative forced choice task (lure identification); type: in vivo, human
Source text: There are various tests known in the art for assessing cognitive function in humans, for example and without limitation, the clinical global impression of change scale (CIBIC-plus scale); the Mini Mental State Exam (MMSE); the Neuropsychiatric Inventory (NPI); the Clinical Dementia Rating Scale (CDR); the Cambridge Neuropsychological Test Automated Battery (CANTAB); the Sandoz Clinical Assessment-Geriatric (SCAG), the Buschke Selective Reminding Test (Buschke and Fuld, 1974); the Verbal Paired Associates subtest; the Logical Memory subtest; the Visual Reproduction sub test of the Wechsler Memory Scale-Revised (WMS-R) (Wechsler, 1997); the Benton Visual Retention Test, or MATRICS consensus neuropsychological test battery which includes tests of working memory, speed of processing, attention, verbal learning, visual learning, reasoning and problem solving and social cognition. See Folstein et al., J Psychiatric Res 12: 189-98, (1975); Robbins et al., Dementia 5: 266-81, (1994); Rey, L'examen clinique en psychologie, (1964); Kluger et al., J Geriatr Psychiatry Neurol 12:168-79, (1999); Marquis et al., 2002 and Masur et al., 1994. Also see Buchanan, R. W., Keefe, R. S. E., Umbricht, D., Green, M. F., Laughren, T., and Marder, S. R. (2011), The FDA-NIMH-MATRICS guidelines for clinical trial design of cognitive-enhancing drugs: what do we know 5 years later? Schizophr. Bull. 37, 1209-1217. Another example of a cognitive test in humans is the explicit 3-alternative forced choice task. […]
(§1) The activity of the subject's medial temporal lobe is measured by functional MRI during the subject's participation in an explicit 3-alternative forced choice task, where participants view novel, repeated and similar (“lure”) stimuli. […]
as §1

aMCI subjects [2] = experiment: Neuropsychological tests (Buschke Selective Reminding, Benton Visual Retention, Verbal Paired Associates); type: in vivo, human; details: levetiracetam 125 mg twice a day for two weeks
Source text: All participants undergo neuropsychological evaluation at the time of assessment for treatment efficacy (Visits 1 and 2), as well as at the Baseline Visit. The evaluation occurs outside of the scanner and includes the Buschke Selective Reminding Test (Buschke and Fuld, 1974) and the Verbal Paired Associates subtest, the Logical Memory subtest, the Visual Reproduction subtest of the Wechsler Memory Scale-Revised (WMS-R) (Wechsler, 1997), and the Benton Visual Retention Test, as these tasks are particularly sensitive to medial temporal lobe function and early memory problems (Marquis et al., 2002 and Masur et al., 1994). Additionally, subjects are asked to complete tests of more general cognitive function such as tests to assess general mental status, executive function, attention and general naming ability. All neuropsychological tests are administered by a trained research assistant during a 60-minute session. As the three neuropsychological assessments in this study occur within a time period of 8 weeks, different versions of the neuropsychological tests are used to minimize test specific practice effects. Breaks are provided to the subject as needed.

[3] = Levetiracetam blood plasma levels in aMCI patients; type: in vivo; details: human, oral, based on aMCI patients, read-out: effective plasma level range (preferred range goal)
Source text: Visit 1: At the end of the first drug/placebo period 2 weeks after the Baseline Visit, the medical, neurological and psychiatric evaluations and cognitive testing are repeated. The subject is also clinically evaluated for suicidal ideation. Blood is drawn again to repeat the standard tests and to determine whether there are any changes related to drug treatment; the subject's blood levetiracetam level is also obtained. All medication dispensed at the Baseline Visit (drug or placebo) is collected and subject compliance with the medication regimen is assessed. The first fMRI session (with cognitive tests) is conducted on the same day, either immediately before or immediately after the clinical assessment. Subjects discontinue first period treatment at this visit.
Visit 2: At approximately 2 weeks after the Washout Visit (i.e., 2 weeks after starting the second treatment period), the medical, neurological and psychiatric evaluations and the cognitive testing are repeated. The subject is clinically evaluated for suicidal ideation. […] All medication dispensed at the Washout Visit is collected and subject compliance with the medication regimen is assessed. […]
Human – in the human studies described in Examples 2 and 3, a subject's levetiracetam blood plasma level was assessed at each visit. […]

- concentration at 2 weeks [3]: 2900 to 4400 ng/mL
SMILES: CC[C@@H](C(N)=O)N1CCCC1=O [levetiracetam, (2S)-2-(2-oxopyrrolidin-1-yl)butanamide]
- performance in the explicit 3-alternative forced choice task (aMCI subjects [1]; levetiracetam 62.5 mg BID, p=0.041): improves significantly
- performance in the explicit 3-alternative forced choice task (aMCI subjects [1]; levetiracetam 125 mg twice a day for two weeks, p=0.039): improves significantly
- performance in the explicit 3-alternative forced choice task (aMCI subjects [1]; levetiracetam 250 mg BID, p=0.2396): does not significantly improve
- Benton Visual Retention Test performance (aMCI subjects [2]): fail to rescue performance
- Buschke Selective Reminding Test-Delayed Recall performance (aMCI subjects [2]): fail to rescue performance
- Verbal Paired Associates Test-Delayed Recall performance (aMCI subjects [2]): fail to rescue performance
- Verbal Paired Associates Test-Recognition performance (aMCI subjects [2]): fail to rescue performance
